Data published in ChEMBL document CHEMBL1152287, “Structure-activity relationships of acetylcholinesterase noncovalent inhibitors based on a polyamine backbone. 4. Further investigation on the inner spacer” (J Med Chem, 2008).

What was measured:
Acetylcholinesterase = Acetylcholinesterase (Homo sapiens, UniProt P22303); test: Inhibition of human recombinant AChE by Ellman's assay
Cholinesterase = Cholinesterase (Homo sapiens, UniProt P06276); test: Inhibition of human serum BChE by Ellman's assay
[1] = molecular target: T1, Amyloid-beta precursor protein (Homo sapiens, UniProt P05067); test: Inhibition of self-induced amyloid beta (1-40) aggregation at 10 uM by thioflavin T formation assay
[2] = molecular target: T1, Amyloid-beta precursor protein; test: Inhibition of self-induced amyloid beta (1-40) aggregation by thioflavin T formation assay

Acetylcholinesterase, sequence (P22303 whole entry): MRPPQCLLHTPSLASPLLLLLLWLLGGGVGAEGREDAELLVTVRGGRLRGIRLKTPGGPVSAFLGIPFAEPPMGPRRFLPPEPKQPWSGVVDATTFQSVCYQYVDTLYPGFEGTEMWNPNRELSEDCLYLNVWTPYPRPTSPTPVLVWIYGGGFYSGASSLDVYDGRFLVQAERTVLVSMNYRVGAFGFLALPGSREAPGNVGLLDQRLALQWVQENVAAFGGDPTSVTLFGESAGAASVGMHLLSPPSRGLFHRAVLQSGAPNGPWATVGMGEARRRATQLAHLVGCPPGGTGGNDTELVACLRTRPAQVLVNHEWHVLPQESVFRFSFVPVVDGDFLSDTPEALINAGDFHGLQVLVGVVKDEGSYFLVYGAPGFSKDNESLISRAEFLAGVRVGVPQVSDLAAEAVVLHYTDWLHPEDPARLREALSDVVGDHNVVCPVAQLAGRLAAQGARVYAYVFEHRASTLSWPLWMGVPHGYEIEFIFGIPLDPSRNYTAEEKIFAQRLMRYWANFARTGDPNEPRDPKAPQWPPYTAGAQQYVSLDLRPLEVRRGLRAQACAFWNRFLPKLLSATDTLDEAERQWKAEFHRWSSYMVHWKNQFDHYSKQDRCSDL
T1 sequence (P05067 whole entry): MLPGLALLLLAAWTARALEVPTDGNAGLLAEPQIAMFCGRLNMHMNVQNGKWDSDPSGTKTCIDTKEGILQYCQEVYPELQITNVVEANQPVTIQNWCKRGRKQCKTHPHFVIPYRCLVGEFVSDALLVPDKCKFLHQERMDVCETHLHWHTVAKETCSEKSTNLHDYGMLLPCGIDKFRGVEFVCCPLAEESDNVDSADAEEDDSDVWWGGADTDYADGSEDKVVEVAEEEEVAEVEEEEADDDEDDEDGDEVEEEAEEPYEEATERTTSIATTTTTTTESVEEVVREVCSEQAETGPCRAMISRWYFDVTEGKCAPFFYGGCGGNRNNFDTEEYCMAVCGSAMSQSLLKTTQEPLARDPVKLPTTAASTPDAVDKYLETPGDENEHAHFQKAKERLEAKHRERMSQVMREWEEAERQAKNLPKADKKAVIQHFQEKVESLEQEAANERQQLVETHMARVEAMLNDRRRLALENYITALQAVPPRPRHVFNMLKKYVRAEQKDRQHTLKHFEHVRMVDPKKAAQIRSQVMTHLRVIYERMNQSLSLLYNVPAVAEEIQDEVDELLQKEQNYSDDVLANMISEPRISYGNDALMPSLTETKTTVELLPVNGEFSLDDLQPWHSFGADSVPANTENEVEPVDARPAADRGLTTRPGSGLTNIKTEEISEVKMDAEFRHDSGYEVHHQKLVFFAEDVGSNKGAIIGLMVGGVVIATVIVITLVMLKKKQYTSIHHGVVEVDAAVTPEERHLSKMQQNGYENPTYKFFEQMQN
Cholinesterase, sequence (P06276 whole entry): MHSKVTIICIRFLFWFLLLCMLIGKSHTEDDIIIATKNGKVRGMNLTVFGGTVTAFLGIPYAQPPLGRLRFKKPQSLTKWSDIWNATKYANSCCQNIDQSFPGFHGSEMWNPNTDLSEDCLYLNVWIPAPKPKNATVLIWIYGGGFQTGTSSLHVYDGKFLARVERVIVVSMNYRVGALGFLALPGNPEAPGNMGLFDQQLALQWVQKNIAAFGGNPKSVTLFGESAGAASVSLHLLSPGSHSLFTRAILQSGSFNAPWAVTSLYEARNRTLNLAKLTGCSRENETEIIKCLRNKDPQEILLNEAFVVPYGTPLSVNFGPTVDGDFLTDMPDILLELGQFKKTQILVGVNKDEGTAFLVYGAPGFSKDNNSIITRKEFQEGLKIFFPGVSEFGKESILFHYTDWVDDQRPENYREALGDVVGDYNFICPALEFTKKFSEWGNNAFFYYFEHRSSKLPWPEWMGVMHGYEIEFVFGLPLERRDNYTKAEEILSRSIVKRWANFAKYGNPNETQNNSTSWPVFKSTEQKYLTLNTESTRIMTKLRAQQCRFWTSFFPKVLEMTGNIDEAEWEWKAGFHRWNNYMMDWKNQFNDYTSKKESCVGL

Row | SMILES | IC50 (Acetylcholinesterase) [nM] | IC50 (Cholinesterase) [nM] | inhibition [1] [%] | IC50 [2] [nM]
1 | CCN(CCCCCC(=O)N[C@H]1CC[C@H](NC(=O)CCCCCN(CC)Cc2ccccc2OC)CC1)Cc1ccccc1OC | 8550 | 25300 | – | –
2 | CCN(CCCCCC(=O)N[C@H]1CCCC[C@@H]1NC(=O)CCCCCN(CC)Cc1ccccc1OC)Cc1ccccc1OC (racemic) | 5470 | 36800 | – | –
3 | CCN(CCCCCCN1C(=O)c2ccc3c4c(ccc(c24)C1=O)C(=O)N(CCCCCCN(CC)Cc1ccccc1OC)C3=O)Cc1ccccc1OC | 0.37 | 1910 | 54.5 | 9690
4 | CCN(CCCCCCn1c(=O)c2cc3c(=O)n(CCCCCCN(CC)Cc4ccccc4OC)c(=O)c3cc2c1=O)Cc1ccccc1OC | 7.7 | 3000 | < 5 | –
5 | CCN(CCCCCCN1C(=O)c2cccc3cccc(c23)C1=O)Cc1ccccc1OC | 53.5 | 416 | < 5 | –
6 | COc1ccccc1CN(C)CCCCCC(=O)N(C)CCCCCCCCN(C)C(=O)CCCCCN(C)Cc1ccccc1OC | – | – | 20.3 | –
7 | CCN(CCCCCCN1CC(=O)N(CCCCCCN(CC)Cc2ccccc2OC)CC1=O)Cc1ccccc1OC | 15.9 | 2090 | 4.8 | –
8 | CCN(CCCCCCn1c(=O)c(=O)n(CCCCCCN(CC)Cc2ccccc2OC)c2ccccc21)Cc1ccccc1OC | 1.41 | 95.8 | 8.8 | –
9 | CCN(CCCCCCN1CCN(CCCCCCN(CC)Cc2ccccc2OC)C(=O)C1=O)Cc1ccccc1OC | 68.9 | 10300 | – | –
10 | CCN(CCCCCCN1CCN(CCCCCCN(CC)Cc2ccccc2OC)C1=O)Cc1ccccc1OC | 72.4 | 876 | < 5 | –
11 | CCN(CCCCCC(=O)N1CCC(C2CCN(C(=O)CCCCCN(CC)Cc3ccccc3OC)CC2)CC1)Cc1ccccc1OC | – | – | 13.7 | –
12 | CCN(CCCCCC(=O)N[C@H]1CCCC[C@H]1NC(=O)CCCCCN(CC)Cc1ccccc1OC)Cc1ccccc1OC | 4160 | 30800 | – | –
13 | CCN(CCCCCCN1C(=O)c2ccc(-c3ccc4c(c3)C(=O)N(CCCCCCN(CC)Cc3ccccc3OC)C4=O)cc2C1=O)Cc1ccccc1OC | 14 | 293 | 16.5 | –
14 | CCN(CCCCCC(=O)N1CCN(C(=O)CCCCCN(CC)Cc2ccccc2OC)CC1)Cc1ccccc1OC | 25.7 | 10700 | < 5 | –
15 | CCN(CCCCCC(=O)N1Cc2ccc3c4c(ccc(c24)C1)CN(C(=O)CCCCCN(CC)Cc1ccccc1OC)C3)Cc1ccccc1OC | 4.83 | 1040 | 12.7 | –
